Here are results for 2 compounds from patent US20240091235A1, “USE AS SELECTIVE AGONIST OF MELANOCORTIN-4 RECEPTOR” (priority 2020, published 2024).

Where a name gives a salt, the structure may show the parent alone.

For orientation: EC50 means the concentration needed to bring the measured effect to its halfway point.

The test system of series [1] is skin and skin hair pigmentation. As to the kind of experiment: Skin pigmentation in repeated toxicity test in monkeys. Type of series: in vivo. As to conditions: repeatedly administered for 2 weeks, FIG. 2. How it is done: In order to confirm the possibility of occurrence of skin pigmentation—which is an off-target effect of MC4R agonist, pigmentation patterns in the skin and skin hair were measured in a repeated toxicity test in monkeys, and the results are represented in FIG. 2.

The target of series [2] is T1, MC1R (Homo sapiens, UniProt Q01726). The experiment in a line: cAMP Hunter Gs-coupled cAMP assay (CHO-K1 cell line), MC1R. Type of series: cell-based. The arrangement: expressed in transfected cells; host or cells: CHO-K1 (cAMP Hunter Gs-coupled cell line). As to conditions: 30 minutes at 37° C. The procedure:
(§1) After cAMP Hunter Gs-coupled cell lines (CHO-K1 cell line) in which each of MC1R and MC4R was overexpressed were established so that the increase in the cAMP level in cells due to agonist reaction was measurable, the cells were inoculated into each well of a white cell culture plate and incubated for 24 hours in a 37° C. incubator in the presence of 5% CO2. After the incubation, the medium was removed, and 15 μL of a 2:1 HBBS/10 mM HEPES:cAMP XS+Ab reagent was added. After 5 μL of the sample diluted 4 times with buffer was added, the vehicle concentration was set to 1%, and the MC4R agonist compound diluted at each step concentration was added, followed by reaction at 37° C. for 30 minutes. The activity (%) of each agonist compound is expressed as 100%×(average RLU value of sample−average RLU value of vehicle control)/(average RLU value of max control−average RLU value of vehicle control), and the value was analyzed by CBIS data analysis suite (ChemInnovation, CA).
(In general: Changes in cAMP serve as a functional read-out for many G protein-coupled receptors.)
Target sequence in this assay (Q01726 whole entry): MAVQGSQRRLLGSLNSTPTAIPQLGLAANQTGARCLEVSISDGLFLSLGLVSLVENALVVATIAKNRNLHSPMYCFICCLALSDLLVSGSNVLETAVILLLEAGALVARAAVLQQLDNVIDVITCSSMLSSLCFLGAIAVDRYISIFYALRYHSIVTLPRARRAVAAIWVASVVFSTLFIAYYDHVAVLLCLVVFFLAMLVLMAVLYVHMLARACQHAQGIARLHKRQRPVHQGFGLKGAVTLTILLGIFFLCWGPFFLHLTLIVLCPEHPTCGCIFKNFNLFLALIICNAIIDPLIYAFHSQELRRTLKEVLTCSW

The target of series [3] is T2, MC4R (Homo sapiens, UniProt P32245). The experiment in a line: Pathhunter eXpress β-arrestin assay (U2OS cell line), MC4R. Type of series: cell-based. On the set-up: expressed in transfected cells; host or cells: U2OS (Pathhunter eXpress β-arrestin cell line). The text has this: (§2) A Pathhunter eXpress β-arrestin cell line (U2OS cell line) in which Prolink (PK)-tagged MC1R and MC4R, and enzyme acceptor (EA)-tagged β-arrestin were expressed together was established. When the MCR-PK portion of this cell line is activated, β-arrestin-EA is mobilized, and enzyme acceptor (EA) and Prolink (PK), which are the β-galactosidase enzyme fragments, interact. The activated enzyme hydrolyzes the substrate by β-galactosidase activity to produce a chemiluminescent signal, so that the activity can be measured. After the Pathhunter eXpress β-arrestin cell line (U2OS cell line) was incubated, the cells were inoculated into each well of the cell culture plate and incubated for 48 hours in a 37° C. incubator in the presence of 5% CO2. After the incubation, 5 μL of the sample diluted 5 times with buffer was added, the vehicle concentration was set to 1%, and the MC4R agonist compound diluted at each step concentration was added, followed by reaction at 37° C. for 90 minutes. The activity (%) of each agonist compound is expressed as 100%×(average RLU value of sample−average RLU value of vehicle control)/(average maximum value of control ligand−average RLU value of vehicle control), and the value was analyzed by CBIS data analysis suite (ChemInnovation, CA).
Target sequence in this assay (P32245 whole entry, the tested form may be a part): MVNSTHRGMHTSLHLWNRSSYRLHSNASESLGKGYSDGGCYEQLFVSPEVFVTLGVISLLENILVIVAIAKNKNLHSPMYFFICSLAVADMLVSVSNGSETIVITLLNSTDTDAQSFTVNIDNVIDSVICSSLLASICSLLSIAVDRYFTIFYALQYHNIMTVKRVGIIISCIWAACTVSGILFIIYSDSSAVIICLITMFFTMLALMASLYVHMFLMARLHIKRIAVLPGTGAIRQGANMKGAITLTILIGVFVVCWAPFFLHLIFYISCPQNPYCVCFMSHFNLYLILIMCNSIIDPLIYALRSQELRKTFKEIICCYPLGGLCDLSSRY
Target sequence in this assay (P32121 whole entry partner, the tested form may be a part): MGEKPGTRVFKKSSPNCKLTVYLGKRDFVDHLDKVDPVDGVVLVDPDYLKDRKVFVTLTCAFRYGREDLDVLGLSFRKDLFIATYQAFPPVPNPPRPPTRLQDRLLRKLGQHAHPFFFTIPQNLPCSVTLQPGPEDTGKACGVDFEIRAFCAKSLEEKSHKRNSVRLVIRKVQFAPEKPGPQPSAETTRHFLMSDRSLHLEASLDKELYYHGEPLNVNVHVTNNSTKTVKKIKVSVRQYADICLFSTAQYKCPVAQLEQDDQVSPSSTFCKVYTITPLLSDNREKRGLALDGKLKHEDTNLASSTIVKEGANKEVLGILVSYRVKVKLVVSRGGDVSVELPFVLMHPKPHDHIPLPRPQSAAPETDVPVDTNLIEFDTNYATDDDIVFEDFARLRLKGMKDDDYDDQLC

The conditions of series [4]: mouse, in vivo. How it is done:
With respect to skin pigmentation—which is an off-target effect of MC4R agonist, the distribution and accumulation of the drug were evaluated by measuring the drug concentration in the skin and plasma after repeated administration in a db/db mouse model lacking leptin receptor.

Series [5] concerns the target T2, MC4R. The experiment in a line: Binding affinity, membranes of HEK-293 cell lines expressing MC4R. On the set-up: expressed in transfected cells. How it is done:
After the CHO-K1 cell line expressing human recombinant MC1R and the HEK-293 cell lines expressing MC4R were established, membranes were collected from each cell line. In a 96-well cell culture plate, the cell line membrane and 25 mM HEPES-KOH adsorption buffer (pH 7.0) containing the MCR agonist diluted at each step concentration were added, and the reaction was carried out. EC50 was calculated as a concentration that induces 50% of the maximum binding that can be induced by each agonist, and the results are represented in Table 2.
Target sequence in this assay (P32245 whole entry, the tested form may be a part): as the sequence (P32245 whole entry, the tested form may be a part) above

The target of series [6] is T3, melanocortin-4 receptor (MC4R) (Homo sapiens, UniProt P32245).
T3 construct: expressed in transfected cells
T3 sequence (P32245 whole entry): as the sequence (P32245 whole entry, the tested form may be a part) above
The experiment in a line: Luciferase assay (CRE-LUC), HEK MC4R-Luc cells. Type of series: cell-based.

Series [7] concerns the target T1, MC1R. The experiment in a line: Binding affinity, membranes of CHO-K1 cell line expressing human recombinant MC1R. The arrangement: expressed in transfected cells; host or cells: CHO-K1 (membranes). Particulars: 25 mM HEPES-KOH buffer pH 7.0. The procedure:
In a 96-well cell culture plate, the cell line membrane and 25 mM HEPES-KOH adsorption buffer (pH 7.0) containing the MCR agonist diluted at each step concentration were added, and the reaction was carried out.
Target sequence in this assay (Q01726 whole entry): as the sequence (Q01726 whole entry) above

For series [8], the target named is T4, melanocortin-1 receptor (MC1R) (Homo sapiens, UniProt Q01726).
T4 construct: expressed in transfected cells
T4 sequence (Q01726 whole entry): as above
The experiment in a line: Luciferase assay (CRE-LUC), HEK MC1R-Luc cells. The format is cell-based. Particulars: luminescence relative to 10 μM NDP-α-MSH. The procedure:
In order to measure the agonist ability for melanocortin-1 receptor (MC1R) and melanocortin-4 receptor (MC4R), a cell line that permanently expresses MC1R, MC4R and the luciferase gene (CRE-LUC) under the control of CRE (cAMP response element) was established.
After a mammalian cell expression vector (pCDNA3 (Neo)) (Invitrogen) containing the MC1R and MC4R genes was prepared, human embryonic kidney (HEK) cell lines were transformed by using Lipofectamine 2000 (Invitrogen) together with a vector (pCRE-Luc)(Stratagen) expressing a luciferase gene (CRE-LUC) under the control of a cAMP response element (CRE). […] Each well was treated with 50 μL of a Bright-Glo luciferase reagent (Promega) and left at room temperature for 15 minutes, and then the luminescence of each well was measured by using a luminometer (Victor).
HEK MC1R-Luc cells and HEK MC4R-Luc cells were added to each well of a 96-well luminometer cell culture plate (Costar) to a size of 2.5×10^4 cells in 100 μL of a culture medium and then incubated in a 37° C. incubator in the presence of 6% CO2 for 18 hours. […] Each well was treated with 50 μL of a Bright-Glo luciferase reagent (Promega) and left at room temperature for five minutes, and then the luminescence of each well was measured by using a luminometer (Victor). […] The measurements were measured using statistical software (Prizm).

For series [9], the target named is T2, MC4R. As to the kind of experiment: cAMP Hunter Gs-coupled cAMP assay (CHO-K1 cell line), MC4R. The format is cell-based. The arrangement: expressed in transfected cells; host or cells: CHO-K1 (cAMP Hunter Gs-coupled cell line). How it is done:
as §1
Target sequence in this assay (P32245 whole entry, the tested form may be a part): as the sequence (P32245 whole entry, the tested form may be a part) above

Series [10] addresses T1, MC1R. The experiment in a line: Pathhunter eXpress β-arrestin assay (U2OS cell line), MC1R. The format is cell-based. On the set-up: expressed in transfected cells; host or cells: U2OS (Pathhunter eXpress β-arrestin cell line). Particulars: 90 minutes at 37° C.
Excerpt: as §2
Target sequence in this assay (Q01726 whole entry): as the sequence (Q01726 whole entry) above
Target sequence in this assay (P32121 whole entry partner): as the sequence (P32121 whole entry partner, the tested form may be a part) above

Series [11] relates to skin pigmentation. As to conditions: reported, Clement et al., Nature Medicine, 2018; cited from earlier work.
The mark [12] stands for this setting: ratio of EC50 in MC1R to EC50 in MC4R.

Consider `CC(C)C(=O)N([C@H]1C[C@@H](C(=O)N2CCOCC2)N(C(=O)[C@@H]2CN(C(C)(C)C)C[C@H]2c2ccc(Cl)cc2)C1)[C@H]1CC[C@@H](C)CC1.Cl` [Test Compound, N-((3S,5S)-1-((3S,4R)-1-(tert-butyl)-4-(4-chlorophenyl)pyrrolidine-3-carbonyl)-5-(morpholine-4-carbonyl)pyrrolidin-3-yl)-N-((1s,4R)-4-methylcyclohexyl)isobutyramide hydrochloride], for which the “Pigmentation on the skin and skin hair” value in [1] is “pigmentation did not appear on the skin and skin hair”. The EC50 in series [2] came to 84.8 nM; in series [3] (U2OS cell line, 90 minutes at 37° C.), 5.14 nM; in [5] (HEK-293 membranes, 25 mM HEPES-KOH buffer pH 7.0), 62 nM; in [6] (HEK MC4R-Luc cells, luminescence relative to 10 μM NDP-α-MSH), 0.434 nM; in series [7] it was 310 nM; in series [8] it was 2.5 nM. Besides, the half-maximal effective concentration (EC50) in series [9] (CHO-K1 cell line, 30 minutes at 37° C.) is 16.3 nM; in series [10], 195 nM. The “Ratio MC1R/MC4R (β-Arrestin)” value in [3] (setting [12]) is reported as 37.98. The “Accumulation of drug in the skin” value in [4] is “did not relatively accumulate in the skin”. The “Ratio MC1R/MC4R (Binding)” value in [5] (setting [12]) is 5.00. Also, the “Ratio MC1R/MC4R (Luciferase)” value in series [6] (setting [12]) was 5.76. Also, the “Ratio MC1R/MC4R (cAMP)” value in [9] (setting [12]) was 5.21.
For the compound `CC(=O)N[C@@H](CCCNC(=N)N)C(=O)N[C@H]1CSSC[C@@H](C(N)=O)NC(=O)[C@H](Cc2c[nH]c3ccccc23)NC(=O)[C@H](CCCNC(=N)N)NC(=O)[C@@H](Cc2ccccc2)NC(=O)[C@H](Cc2c[nH]cn2)NC(=O)[C@@H](C)NC1=O` [setmelanotide, Ac-RC[dA]H[dF]RWC-NH2 (disulfide) (AcOH salt)], the “Skin pigmentation in clinical trials” value in series [11] is “show skin pigmentation”.
